This is an account of results in article PMC6291207 (ChemMedChem, 2018).

One test has as its target Aiolos (Homo sapiens, UniProt Q96SW2+Q9UKT9). As to conditions: for Dmax (maximal degradation achieved), Aiolos: MM1S cells, 24 hours treatment, normalized to tubulin.
A further test relates to MM1S cells. The note with it: read-out: IC50 inhibition of cell proliferation, 72 hours, MTS assay. (In general: Formazan colour is commonly taken as a measure of viable cells.)
The next test addresses CRBN (Homo sapiens, UniProt Q96SW2). Put plainly: SPR binding assay with immobilized His-tagged CRBN. The note with it: for Kd: read-out: CRBN Kd, surface plasmon resonance, average of at least 2 experiments, errors = standard error of the mean, N.B. = no binding observed. (In SPR one partner is held on a chip, and binding of the other changes the refractive index at the surface.)

SMILES strings stand for the structures. A value given as a limit tells only on which side of the number the result lay.

Usually Dmax stands for the largest share of the target that was removed. A word on the Kd: it is the concentration at which binding is half-saturated.

Chain of Aiolos (Q9UKT9 whole entry): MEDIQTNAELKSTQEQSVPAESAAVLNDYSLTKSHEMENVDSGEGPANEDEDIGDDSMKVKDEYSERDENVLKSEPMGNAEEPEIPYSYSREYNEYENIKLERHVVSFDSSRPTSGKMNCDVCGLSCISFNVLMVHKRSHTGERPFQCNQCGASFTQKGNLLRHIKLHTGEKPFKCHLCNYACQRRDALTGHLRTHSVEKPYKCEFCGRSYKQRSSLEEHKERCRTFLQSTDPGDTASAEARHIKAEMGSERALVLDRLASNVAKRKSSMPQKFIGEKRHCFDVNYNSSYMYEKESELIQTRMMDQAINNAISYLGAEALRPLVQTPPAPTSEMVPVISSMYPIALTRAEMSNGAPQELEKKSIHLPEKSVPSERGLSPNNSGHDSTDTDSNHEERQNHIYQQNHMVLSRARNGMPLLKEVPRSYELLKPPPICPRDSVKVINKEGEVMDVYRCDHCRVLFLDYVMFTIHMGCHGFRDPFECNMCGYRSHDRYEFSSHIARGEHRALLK
Chain of Aiolos (Q96SW2 whole entry): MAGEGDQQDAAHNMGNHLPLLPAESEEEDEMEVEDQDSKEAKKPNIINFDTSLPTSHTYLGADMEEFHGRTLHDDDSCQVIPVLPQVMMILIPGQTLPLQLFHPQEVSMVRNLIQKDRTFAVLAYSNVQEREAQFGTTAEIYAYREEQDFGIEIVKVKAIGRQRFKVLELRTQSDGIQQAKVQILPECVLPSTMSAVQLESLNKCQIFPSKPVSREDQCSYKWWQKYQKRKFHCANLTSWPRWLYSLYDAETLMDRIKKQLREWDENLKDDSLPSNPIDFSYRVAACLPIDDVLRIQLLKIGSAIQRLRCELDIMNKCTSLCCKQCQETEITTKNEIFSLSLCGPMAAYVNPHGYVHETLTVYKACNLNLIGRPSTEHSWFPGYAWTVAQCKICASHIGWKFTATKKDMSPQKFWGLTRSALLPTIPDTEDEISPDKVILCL
Chain of Aiolos (Q16531 whole entry partner): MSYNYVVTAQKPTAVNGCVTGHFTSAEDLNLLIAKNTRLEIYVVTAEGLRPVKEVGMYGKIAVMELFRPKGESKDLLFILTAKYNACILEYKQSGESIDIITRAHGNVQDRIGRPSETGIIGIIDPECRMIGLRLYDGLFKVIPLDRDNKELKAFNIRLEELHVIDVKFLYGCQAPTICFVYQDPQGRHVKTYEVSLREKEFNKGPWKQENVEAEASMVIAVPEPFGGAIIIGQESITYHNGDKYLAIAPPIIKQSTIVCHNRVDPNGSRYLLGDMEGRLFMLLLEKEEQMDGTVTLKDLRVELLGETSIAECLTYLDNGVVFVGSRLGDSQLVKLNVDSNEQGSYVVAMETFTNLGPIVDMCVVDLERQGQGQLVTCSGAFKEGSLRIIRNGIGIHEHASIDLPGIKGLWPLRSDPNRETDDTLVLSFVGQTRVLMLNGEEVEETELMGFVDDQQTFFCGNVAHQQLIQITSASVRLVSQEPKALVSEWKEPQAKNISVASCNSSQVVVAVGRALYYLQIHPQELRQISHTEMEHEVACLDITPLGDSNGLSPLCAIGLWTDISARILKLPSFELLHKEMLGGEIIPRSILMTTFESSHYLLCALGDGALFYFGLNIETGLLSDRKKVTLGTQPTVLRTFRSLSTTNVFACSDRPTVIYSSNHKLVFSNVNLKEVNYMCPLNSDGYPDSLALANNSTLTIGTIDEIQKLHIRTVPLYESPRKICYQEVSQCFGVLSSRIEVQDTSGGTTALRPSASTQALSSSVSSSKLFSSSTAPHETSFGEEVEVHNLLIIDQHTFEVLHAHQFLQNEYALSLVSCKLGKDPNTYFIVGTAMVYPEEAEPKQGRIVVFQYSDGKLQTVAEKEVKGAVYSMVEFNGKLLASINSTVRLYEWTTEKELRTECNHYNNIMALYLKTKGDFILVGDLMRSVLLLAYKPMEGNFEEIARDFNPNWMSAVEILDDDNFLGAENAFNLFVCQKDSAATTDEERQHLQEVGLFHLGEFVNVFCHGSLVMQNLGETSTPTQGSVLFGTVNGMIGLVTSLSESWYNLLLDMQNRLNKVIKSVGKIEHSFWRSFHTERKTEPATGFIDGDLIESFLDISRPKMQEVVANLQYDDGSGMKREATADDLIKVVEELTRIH
Chain of CRBN (Q96SW2 whole entry): as the sequence (Q96SW2 whole entry) above

As for `Nc1cccc2c1C(=O)N(C1CCC(=O)NC1=O)C2=O` (centres unmarked) [Compound 13, Pomalidomide, reference compound], the Dmax at Aiolos (MM1.S, read-out: Dmax (maximal degradation achieved), Aiolos) is > 95%.

Turning to `O=C1CCC(N2C(=O)c3cccc(F)c3C2=O)C(=O)N1` (centres unmarked) [Compound 17], in the test with MM1S cells, the IC50 was found to be 3570 nM. Further, on Aiolos, the “Dmax (maximal degradation achieved), Aiolos” value stood at 83%. For the same compound, on CRBN (compared with Pomalidomide and Compound 19), the “fold less affinity for CRBN than Pomalidomide and Compound 19” value is “roughly 2 fold”. For the same compound, the equilibrium dissociation constant (Kd) at CRBN stood at 558 ± 51 nM.

With `Cc1cccc2c1C(=O)N(C1CCC(=O)NC1=O)C2=O` (centres unmarked) [Compound 19], the IC50 with MM1S cells turned out to be 128 nM. Also, the “Dmax (maximal degradation achieved), Aiolos” value at Aiolos stood at 85%. Further, the Kd at CRBN amounted to 325 ± 24 nM.
